# According to US20230190650A1 (The University of North Carolina at Chapel Hill, priority 2020, published 2023):
# Counter-ions that a name gives are not always drawn.
# Tests used:
# [1] = In vitro dissolution testing of LBB-111 (release into PBS from 3D printed socket); format: physicochemical; conditions: from LBB-111; PBS pH 7.4, 37° C.
# Method: As a first step to approximate release properties of LBB-111, we performed in vitro dissolution testing under various conditions. […] Mixing was accomplished using the smaller “mini” spin paddles at 59 rpm. Dissolution media [900 mL Phosphate buffered saline (PBS), pH 7.4] was equilibrated at 37° C. overnight before the start of a run. To mimic a human molar socket, cylindrical chambers with internal dimensions approximately 1 cm tall and 1 cm in diameter, with a high infill base to give the socket weight and stability were 3D printed at the UNC BeAM […] using an Ultimaker 3. Sockets were filled to the rim with formulation using an 18 g needle, and the formulation weight (around 0.8 g for these sockets) was recorded. The flat base of the socket was placed on the bottom of each dissolution chamber and mixing initiated. […] Referring now to FIG. 6, the graph illustrates drug released into PBS medium plotted as the fraction of the total that was present in the formulation at the start (% released). […] Formulation samples were dissolved in 19-times their weight (final conc. 5% wt) 200-proof ethanol, the ethanol dissolved samples were then diluted 5-fold into distilled water, and 10 μL of this dilution was injected.
# [2] = Method: (§1) Identical samples were prepared with 0.5 g/L EDTA added as preservative). These aliquots were quantified by HPLC, alongside aliquots of the formulation (both with and without EDTA) treated in the same manner, which were dissolved in ethanol immediately before quantification.
# (§2) The column was a YMC-Pack Pro C18 column (3 µm particle size, 120 Å pore size, 4.6 x 150 mm) and mobile phase was 30 mM potassium phosphate, 0.16% trimethylamine, adjusted to pH 4.9 with phosphoric acid, 30% Acetonitrile.
# (§3) “Fridge” samples stored at 4° C., “Heat” at 40° C., “Light” on bench in clear vials. An “E” after the storage condition indicates samples with 5 g/L EDTA added as preservative.
# [3] = cited from earlier work; for logD7.4: pH 7.4
# [4] = Stability of drugs in the anesthetic formulation (HPLC); format: physicochemical; conditions: eutectic emulsion formulation
# Method: as §1, §2, §3
# [5] = local anesthetic activity profile; cited from earlier work
# [6] = Partitioning of small molecules between aqueous phase and oily eutectic; format: physicochemical; conditions: after 10 minutes of mixing; 0.5 g/L bupivacaine-HCl, 5 g/L chlorobutanol, 25 g/L benzyl alcohol
SMILES,relative release rate [1],degradation in solution [2],"time to becoming undetectable in solution ([2]; saliva analogue buffer, light or heat (40° C.) conditions, without EDTA) [days]",pKa [3],logD7.4 [3],degradation in the formulation without EDTA [4],Duration [5],Onset [5],Potency [5],presence in the aqueous phase after mixing with the eutectic [6],logP [3],"degradation in solution, Heat sample with EDTA [2]"
CCOC(=O)c1ccc(N)cc1 [Benzocaine],fastest,almost undetectable,≤ 10,2.8,1.86,lack of benzocaine degradation,Short,Fast,Low,–,–,–
OCc1ccccc1 [benzyl alcohol],–,–,–,–,–,–,–,–,–,undetectable,–,–
"CCCCN1CCCCC1C(=O)Nc1c(C)cccc1C (stereo not shown) [bupivacaine-HCl, bupivacaine hydrochloride]",–,–,–,–,–,–,–,–,–,undetectable,–,–
CCCCN1CCCCC1C(=O)Nc1c(C)cccc1C (stereo not shown) [Bupivacaine],slowest,–,–,–,2.39,–,Long,Moderate,High,–,3.41,–
CCN(CC)CC(=O)Nc1c(C)cccc1C [Lidocaine],–,almost undetectable,–,–,–,–,Moderate,Fast,Medium,–,–,some lidocaine degradation
